14 molecules from patent US20250051355A1, “COMPOUNDS, COMPOSITIONS, AND METHODS” (ACONCAGUA BIO, INC., priority 2023, published 2025) can be followed below.

Each structure is given as a SMILES string.

Type in all cases: cell-based
The target in test [1] is T1, human calcitonin receptor (CTR) and RAMP3 (AMY3) (Homo sapiens, UniProt O60896+P30988). Briefly: Amylin Receptor cAMP Assay I. The conditions noted are these: COS-7/AMY3 cells, cAMP Hi-range Kit, read-out: Amylin Receptor cAMP Stimulation Activity: EC50. The source says: Amylin Receptor cAMP Assay I
T1 sequence (O60896 24-148, one chain of several): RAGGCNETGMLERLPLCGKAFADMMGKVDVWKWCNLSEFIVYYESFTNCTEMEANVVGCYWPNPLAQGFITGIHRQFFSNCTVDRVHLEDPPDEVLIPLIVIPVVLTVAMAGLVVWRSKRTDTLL
AMYRs are heterodimers of the class B calcitonin (CT) G-protein-coupled receptor (CTR) and receptor activity-modifying proteins (RAMPs). All three RAMPs can interact with the CTR and form AMY1, AMY2, AMY3 with RAMP1, RAMP2 and RAMP3, respectively. Like other class B1 GPCRs, the CT receptor family is canonically coupled to Gs-mediated cAMP production, and measurement of cAMP accumulation has been the primary assay used to determine peptide selectivity and potency.
To optimize functional activity directed toward Gas coupling, COS-7 cells were stably transfected with human calcitonin receptor (CTR) and RAMP3, simultaneously. 100×concentration of compound working solutions were prepared (Agilent Technologies Bravo) with 4-fold serial dilution in 384-well Echo LDV plate (Labcyte, Cat #LP-0200). 100 nL/well 100× concentration of compound working solutions were moved to 384-well white low volume plate (Greiner, Cat #784075) using Labcyte ECHO550. 1×10^5 cells/mL COS-7/CTR or COS-7/AMY3 (HD Biosciences) cell suspensions prepared with assay buffer [DPBS containing 0.5 mM IBMX (Sigma, Cat #15879) and 0.1% BSA (GENVIEW, Cat #FAO16-100 g)], 10 μL cell suspensions were added to each well of previous generated assay plate which already contains 100 nL compound at 100× concentration using ThermoFisher Multidrop Combi (1000 cells/well). Seal the plate and incubate at 37° C. with 5% CO2 for 30 min.
After incubation, the cAMP assay signal was generated using cAMP Hi-range Kit (Cisbio). 5 μL cAMP-d2 working solution was added to each well, followed by 5 μL Anti-cAMP antibody-cryptate working solution which was added to each well using ThermoFisher Multidrop Combi. The samples were then incubated at room temperature for 1 hour protected from light. the fluorescence was read at 665 and 615 nm with Reader PerkinElmer EnVision.

Test [2] has as its target T1, human calcitonin receptor (CTR) and RAMP3 (AMY3). Briefly: Amylin Receptor cAMP Assay II. The conditions noted are these: COS-7/AMY3 cells, cAMP dynamic 2 kit, read-out: Amylin Receptor cAMP Stimulation Activity: EC50. The gist of the method:
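COS-7 cells stably co-expressing human CTR and RAMP3 (AMY3) were treated with 4-fold serially diluted compounds at 2000 cells/well in HBSS with 20 mM HEPES, 0.5 mM IBMX and 0.1% casein for 30 min at 37 °C. cAMP was measured by HTRF (cAMP-d2 plus anti-cAMP cryptate, 1 h at RT) with reads at 665/615 nm.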

In test [3] the target is T2, human calcitonin receptor (CTR) (Homo sapiens, UniProt P30988).
T2 construct: expressed in transfected cells; host or cells: COS-7 (COS7-human CTR Clone #2)
T2 sequence (P30988 25-474): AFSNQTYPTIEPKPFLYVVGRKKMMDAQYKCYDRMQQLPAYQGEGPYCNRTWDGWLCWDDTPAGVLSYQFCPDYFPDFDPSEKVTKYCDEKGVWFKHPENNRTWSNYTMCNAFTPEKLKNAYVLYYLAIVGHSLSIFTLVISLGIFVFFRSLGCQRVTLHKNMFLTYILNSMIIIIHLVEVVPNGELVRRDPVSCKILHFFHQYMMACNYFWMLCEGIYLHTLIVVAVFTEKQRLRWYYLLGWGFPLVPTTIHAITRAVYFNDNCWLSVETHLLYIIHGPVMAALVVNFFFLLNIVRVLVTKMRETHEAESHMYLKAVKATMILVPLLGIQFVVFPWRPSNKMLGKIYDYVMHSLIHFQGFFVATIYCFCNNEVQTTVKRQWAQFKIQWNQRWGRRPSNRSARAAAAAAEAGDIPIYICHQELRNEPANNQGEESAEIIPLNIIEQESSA
Briefly: Calcitonin receptor (CTR) cAMP Assay. The conditions noted are these: COS7-human CTR Clone #2 cells, cAMP dynamic 2 kit; read-out: Calcitonin Receptor cAMP Stimulation Activity: EC50. In short, it runs like this:
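COS-7 cells stably expressing human CTR (2000 cells/well) treated with 4-fold serially diluted compounds in HBSS/20 mM HEPES/0.5 mM IBMX/0.1% casein, 30 min at 37° C. cAMP quantified by HTRF (cAMP-d2 plus anti-cAMP cryptate, 1 h RT), fluorescence read at 665 and 615 nm.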

Turning to `CO[C@H]1C[C@@H](NC(=O)c2ccc(-c3c4c(nc(CCc5ccc(F)cc5)c3-c3nnc(C)o3)[C@@H]3CCCN3C4=O)s2)c2ccccc21` (stereo in doubt) [Compound 30, N-[(1R,3S)-3-methoxy-1-indanyl]-5-{(2S,6R)-11-[2-(p-fluorophenyl)ethyl]-10-(5-methyl-1,3,4-oxadiazol-2-yl)-7-oxo-6,12-diazatricyclo[6.4.0^2,^6]dodeca-1(8),9,11-trien-9-yl}-2-thenamide], in test [1], the EC50 came to 0.0635 µM.
Consider `CO[C@@H]1C[C@@H](NC(=O)c2ccc(-c3c4c(nc(CCc5ccc(F)cc5)c3-c3nnc(C)o3)[C@@H]3CCCN3C4=O)s2)c2ccccc21` (stereo in doubt) [Compound 48], for which the EC50 in test [1] worked out at 0.321 µM.
Turning to `Cc1nnc(-c2c(CCC34CCC(CC3)OC4)nc3c(c2-c2cc4ccnc(N[C@@H]5CCc6ncccc65)c4s2)c(=O)n2n3CCC2)o1` [Compound 147, 6-((2S)-2-methyl-10-(2-methyl-4-pyridyl)-7-oxo-11-[2-(tetrahydro-2H-pyran-4-yl)ethyl]-6,12-diazatricyclo[6.4.0.0,^1I]dodeca-1(12),8,10-trien-9-yl}-3-[(5-chloro-3-fluoro-2-pyridyl)methyl]-1,3-benzoxazol-2(3H)-one], the EC50 in test [2] was 0.18 µM; in test [3] it was 0.0172 µM.
On to `Cc1cc(-c2c(CCC3CCOCC3)nc3c(c2-c2ccc4c(c2)oc(=O)n4Cc2ncc(Cl)cc2F)C(=O)N2CCC[C@@]32C)ccn1` [Compound 148, 6-((2S)-2-methyl-10-(2-methyl-4-pyridyl)-7-oxo-11-[2-(tetrahydro-2H-pyran-4-yl)ethyl]-6,12-diazatricyclo[6.4.0.0,^1I]dodeca-1(12),8,10-trien-9-yl}-3-[(5-chloro-3-fluoro-2-pyridyl)methyl]-1,3-benzoxazol-2(3H)-one], for which the figures for the EC50 in test [2] and in test [3] were 0.839 µM and 0.0651 µM, respectively.
On to `CC(C)c1nnc(-c2c(CCC3CCOCC3)nc3c(c2-c2ccc4c(c2)oc(=O)n4Cc2ccc(C#N)c(F)c2)c(=O)n2n3CCC2)o1` [Compound 150, 2-fluoro-4-[(6-(10-(5-isopropyl-1,3,4-oxadiazol-2-yl)-7-oxo-11-[2-(tetrahydro-2H-pyran-4-yl)ethyl]-2,6,12-triazatricyclo[6.4.0.0^2,6]dodeca-1(8),9,11-trien-9-yl}-2-oxo-1,3-benzoxazol-3-yl)methyl]benzonitrile], for which the EC50 is 0.0152 µM in test [2] and 0.00186 µM in test [3].
On the same counts, the results for `Cc1cc(-c2c(CCC3CCOCC3)nc3c(c2-c2ccc4c(c2)oc(=O)n4Cc2ccc(C#N)c(F)c2)c(=O)n2n3CCC2)ccn1` [Compound 151, 2-fluoro-4-[(6-(10-(2-methyl-4-pyridyl)-7-oxo-11-[2-(tetrahydro-2H-pyran-4-yl)ethyl]-2,6,12-triazatricyclo[6.4.0.0^2,6]dodeca-1(12),8,10-trien-9-yl}-2-oxo-1,3-benzoxazol-3-yl)methyl]benzonitrile] are 0.073 µM and 0.00512 µM.
As for `Cc1cnc(-c2c(CCC3CCOCC3)nc3c(c2-c2ccc4c(c2)oc(=O)n4Cc2ccc(C#N)c(F)c2)c(=O)n2n3CCC2)o1` [Compound 152, 2-fluoro-4-[(6-(10-(5-methyl-1,3-oxazol-2-yl)-7-oxo-11-[2-(tetrahydro-2H-pyran-4-yl)ethyl]-2,6,12-triazatricyclo[6.4.0.0^2,6]dodeca-1(12),8,10-trien-9-yl}-2-oxo-1,3-benzoxazol-3-yl)methyl]benzonitrile], the half-maximal effective concentration (EC50) in test [2] was determined as 0.0401 µM; in test [3] it was 0.00728 µM.
With `CC(C)c1nnc(-c2c(CCC34CCC(CC3)OC4)nc3c(c2-c2ccc4c(c2)oc(=O)n4Cc2ccc(C#N)c(F)c2)c(=O)n2n3CCC2)o1` [Compound 153, 2-fluoro-4-({6-[10-(5-isopropyl-1,3,4-oxadiazol-2-yl)-11-(2-(2-oxabicyclo[2.2.2]oct-4-yl)ethyl}-7-oxo-2,6,12-triazatricyclo[6.4.0.0^2,6]dodeca-1(12),8,10-trien-9-yl]-2-oxo-1,3-benzoxazol-3-yl}methyl)benzonitrile], the figures for the EC50 in test [2] and in test [3] were 0.0122 µM and 0.000324 µM, respectively.
On the same counts, the results for `Cc1cnc(-c2c(CCC34CCC(CC3)OC4)nc3c(c2-c2ccc4c(c2)OCC(=O)N4Cc2ncc(Cl)cc2F)c(=O)n2n3CCC2)o1` [Compound 156] are 0.0547 µM and 0.00149 µM.
Turning to `Cc1cnc(-c2c(CCC34CCC(CC3)OC4)nc3c(c2-c2ccc4c(c2)OCC(=O)N4Cc2ccc(F)cn2)c(=O)n2n3CCC2)o1` [Compound 157, 9-(4-[(5-fluoro-2-pyridyl)methyl]-3-oxo-2,4-dihydro-1,4-benzoxazin-7-yl}-10-(5-methyl-1,3-oxazol-2-yl)-11-(2-(2-oxabicyclo[2.2.2]oct-4-yl)ethyl}-2,6,12-triazatricyclo[6.4.0.0^2,6]dodeca-1(12),8,10-trien-7-one], the values for the EC50 in test [2] and in test [3] were 0.27 µM and 0.00964 µM, respectively.
In the case of `Cc1nnc(-c2c(C(C)C)nc3c(c2-c2ccc4c(c2)OCC(=O)N4Cc2ccc(F)cn2)C(=O)N2CCC[C@@H]32)o1` [Compound 158, 7-((2S)-11-isopropyl-10-(5-methyl-1,3,4-oxadiazol-2-yl)-7-oxo-6,12-diazatricyclo[6.4.0.0^2,6]dodeca-1(12),8,10-trien-9-yl}-4-[(5-fluoro-2-pyridyl)methyl]-2,4-dihydro-1,4-benzoxazin-3-one], the half-maximal effective concentration (EC50) in test [2] is 5.88 µM; in test [3], 0.242 µM.
Turning to `Cc1cnc(-c2c(CCC34CCC(CC3)OC4)nc3c(c2-c2ccc4c(c2)OC(C)(C)C(=O)N4Cc2ccc(F)cn2)c(=O)n2n3CCC2)o1` [Compound 159, 9-(4-[(5-fluoro-2-pyridyl)methyl]-2,2-dimethyl-3-oxo-2,4-dihydro-1,4-benzoxazin-7-yl}-10-(5-methyl-1,3-oxazol-2-yl)-11-(2-(2-oxabicyclo[2.2.2]oct-4-yl)ethyl}-2,6,12-triazatricyclo[6.4.0.0^2,6]dodeca-1(12),8,10-trien-7-one], the EC50 in test [2] worked out at 0.0702 µM; in test [3] it was 0.00367 µM.
In the case of `Cc1nnc(-c2c(C(C)C)nc3c(c2-c2ccc4c(c2)OC(C)(C)C(=O)N4Cc2ccc(F)cn2)C(=O)N2CC4CC32C4)o1` [Compound 160, 4-[(5-fluoro-2-pyridyl)methyl]-7-[4-isopropyl-5-(5-methyl-1,3,4-oxadiazol-2-yl)-8-oxo-3,9-diazatetracyclo[9.1.1.0^1,9.0^2,7]trideca-2,4,6-trien-6-yl]-2,2-dimethyl-4H-1,4-benzoxazin-3(2H)-one], the results for the EC50 in test [2] and in test [3] were 0.596 µM and 0.0269 µM, respectively.
As for `CCc1nc2c(c(-c3ccc4c(c3)OC(C)(C)C(=O)N4Cc3ccc(F)cn3)c1-c1nnc(C)o1)C(=O)N1CC3CC21C3` [Compound 161, 7-[4-ethyl-5-(5-methyl-1,3,4-oxadiazol-2-yl)-8-oxo-3,9-diazatetracyclo[9.1.1.01, 0.2,1]trideca-2,4,6-trien-6-yl]-4-[(5-fluoro-2-pyridyl)methyl]-2,2-dimethyl-4H-1,4-benzoxazin-3(2H)-one], the EC50 was found to be 5.38 µM in test [2] and 0.226 µM in test [3].
